Publication PMC10719761 (Journal of the American Chemical Society, 2023)

Key:
[1] = cited from earlier work
[2] = Incubation with GSH at pH 7.4; assay type: physicochemical; settings: pH 7.4, within 4 h of incubation

SMILES: N[C@@H](CCC(=O)N[C@@H](CS)C(=O)NCC(=O)O)C(=O)O [GSH, glutathione]
- pKa [1]: 9.17

SMILES: COc1ccc2c(c1)CCCN2C(=O)CCl [Compound 11]
- corresponding GSH adduct produced [2]: more than 50%
